Reference: PMC6920923, “Improving In Vivo Brain Delivery of Monoclonal Antibody Using Novel Cyclic Peptides” (Pharmaceutics, 2019)
“Also recorded” adds a separate entry of the source.

Key:
[1] = tested on: primary brain endothelial cell monolayers; conditions: ref [33] Bocsik et al.; cited from earlier work
Source text: (§1) This study was also aimed at developing cyclic ADTHAV peptide by combining important residues from the ADT peptide (i.e., ADTC5) and HAV peptide (i.e., HAV6). Because ADTC5 and HAV6 bind at different sites on the EC1 domain, combining the two active sequences could provide synergistic activity form both parent peptides on cyclic ADTHAV. In this case, cyclic ADTHAV contains the Thr-Pro-Pro-Val sequence from ADTC5 and Ser-His-Ala-Val sequence from HAV6. The hypothesis is that the combined sequence enhances BBB modulatory activity better than the parent ADTC5 and HAV6. The selection of the Thr-Pr ...

BBB [2] = conditions: ref [22], cited from earlier work
Source text: Treating brain diseases is a challenge as it is difficult to deliver drugs through the BBB into the brain. As many approaches to solve this problem have failed clinically, it is important to investigate new methods to improve brain delivery of molecules for diagnosing and treating brain diseases. This study was focused on designing, synthesizing, and evaluating new cyclic peptides for modulating the BBB to increase paracellular protein delivery into the brain. […] This is because it is dangerous to keep the BBB open for a long period of time, allowing unwanted molecules to enter the brain. However, it is necessary to maintain the opening for an adequate amount of time to allow the delivered molecule to enter the brain with the necessary dose. For example, HAV6 has an opening window of less than 1 h to allow a small molecule such as IRdye-R800 and gadopentetic acid (Gd-DTPA) to enter the brain, while ADTC5 has a durati ...

brain (C57BL/6 mice) [3] = conditions: recent studies, ref not given; cited from earlier work
Source text: Treating brain diseases is a challenge as it is difficult to deliver drugs through the BBB into the brain. As many approaches to solve this problem have failed clinically, it is important to investigate new methods to improve brain delivery of molecules for diagnosing and treating brain diseases. This study was focused on designing, synthesizing, and evaluating new cyclic peptides for modulating the BBB to increase paracellular protein delivery into the brain.

EC1 domain of E-cadherin = target: T1, EC1 domain of E-cadherin (Homo sapiens, UniProt P12830); conditions: NMR studies; ref [26]; cited from earlier work
T1 sequence (P12830 155-262 limits assumed): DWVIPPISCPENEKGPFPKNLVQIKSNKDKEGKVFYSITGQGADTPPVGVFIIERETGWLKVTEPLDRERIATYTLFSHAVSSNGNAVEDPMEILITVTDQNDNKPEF
Source text: Cadherin peptides interrupt the cadherin–cadherin interactions by binding to the extracellular domains of cadherins allowing delivered molecules to pass through the […] of the BBB. […] Using the X-ray structure of C-cadherin as a model, it is seen that the cadherin molecules can form cis- and trans-interactions with each other in a homotypic fashion. The cis-cadherin interactions were formed via binding of the EC1 domain from one ca ...

BBB [4] = conditions: cited from earlier work
Description: The duration of time of the BBB opening is an important factor to consider for using cadherin peptides to deliver molecules to the brain. This is because it is dangerous to keep the BBB open for a long period of time, allowing unwanted molecules to enter the brain. However, it is necessary to maintain the opening for an adequate amount of time to allow the delivered molecule to enter the brain with the necessary dose. For example, HAV6 has an opening window of less than 1 h to allow a small molecule such as IRdye-R800 and gadopentetic acid (Gd-DTPA) to enter the brain, while ADTC5 has a durati ...

brain (C57BL/6 mice) [5] = conditions: peptide 13 µmol/kg, albumin 21.6 nmol/kg; ref not given; cited from earlier work
Source text: Treating brain diseases is a challenge as it is difficult to deliver drugs through the BBB into the brain. As many approaches to solve this problem have failed clinically, it is important to investigate new methods to improve brain delivery of molecules for diagnosing and treating brain diseases. This study was focused on designing, synthesizing, and evaluating new cyclic peptides for modulating the BBB to increase paracellular protein delivery into the brain. […] It is proposed that the rigidity imposed on the peptide backbone of the cyclic peptide reduced the ensemble ...

[6] = tested on: medulloblastoma brain tumor; conditions: ref [24], cited from earlier work
Description: (§2) Several attempts have been made to overcome this challenge using various invasive and non-invasive methods. Intracerebral ventricular (ICV) delivery is an invasive injection technique in which drug substances are administered directly into the cerebrospinal fluid in cerebral ventricles. Alternatively, many non-invasive methods have been investigated in vivo with various levels of success using receptor-mediated drug delivery systems, liposomes, microbubble-enhanced diagnostic ultrasound (MEUS), and nanoparticles. The most successful non-invasive method for delivering drugs to ...

brain [7] = conditions: cited from earlier work
Description: as §2

brains of C57BL/6 mice = experiment: In vivo brain delivery of IRdye800CW-IgG mAb (NIRF quantification); conditions: n = 3
Description: The activity of each peptide in enhancing BBB penetration was evaluated by delivering IRdye800CW donkey anti-goat IgG mAb in C57BL/6 mice; the amounts of mAb in the brain were determined using near infrared fluorescence (NIRF) imaging. Each group contains 3 mice per group (n = 3) with a mixture of male and female mice, selected randomly for each arm of the study. The injection solution was prepared by adding 600 µL PBS into 0.5 mg lyophilized IgG mAb; then, approximately 1.5 mg lyophilized peptide was added into the mixture yielding the injectable formulation. A 100 µL solution of a mixture containing IgG mAb (21.6 nmol/kg) along with 13 µmol/kg peptide was administered via tail vein. As a control, 100 µL of IgG mAb alone was administered via i.v. route. After the delivered molecules had been circulating for 15 min, the mice were sacrificed; then, a mixture of PBS with 0.5% Tween-20 was administered for cardiac perfusion to remove the blood and delivered molecules from the brain microvessels. The brain and other organs such as lung, heart, spleen, liver, and kidney were harvested and rinsed with PBS. The isolated organs were scanned with Odyssey® CLx for mAb quantification.
The brain deposition of IgG mAb was also quantified by NIRF imaging in brain homogenates. The isolated brains were mechanically homogenized in 2.0 mL of PBS. To make the standard solutions, IRDye800CW IgG mAb stock solution (70 µg/mL) was prepared; it was then diluted with various amounts of PBS to make six different mAb concentrations. To generate a calibration curve, the brain homogenate (200 µL) was aliquoted out to a 96-well plate. A total of 10 µL of each concentration of IgG mAb was added to three different wells of blank brain homogenates. The standard spiked homogenates were at a range of 10–200 ng/mL IgG mAb in brain homogenate. The wells were scanned using the Odyssey® CLx scanner, and the signal intensities vs. concentrations of mAb per gram of brain were used to generate a calibration curve.
ANOVA with Student–Newman–Keuls was used to compare the data for determining statistical significance for IgG mAb deposition in the brains. A p-value of less than 0.05 was used as a criterion for a significant difference in data comparison. Numeric results are presented as: mean ± SEM.
A calibration curve was generated to determine the amount of IgG mAb in the brain by spiking blank brain homogenates with a concentration range from 10 to 200 ng/mL, and good linearity with R^2 ≥ 0.98 was achieved. […] The average amounts of IgG mAb in the brains of HAV6-treated and control animals were 3.4 ± 0.4 and 4.0 ± 0.5 pmol/g brain, respectively. In contrast, the average amounts of mAb in the brains of cyclic HAVN1- and HAVN2-treated mice were 8.6 ± 0.5 and 8.8 ± 0.6 pmol/g brain, respectively. The BBB modulatory activities of ADTC5, linear ADTHAV, and cyclic ADTHAV were also compared to the control (Figure 5). […] The average brain deposition of IgG mAb were 11.8 ± 0.5, 15.7 ± 0.8, and 13.3 ± 0.7 pmol/g brain for linear ADTHAV, cyclic ADTHAV, and ADTC5, respectively.

[8] = tested on: MDCK cell monolayers / in vivo BBB; conditions: vs ADTC1 or ADTC5; ref [20]; cited from earlier work
Source text: as §1

brain [9] = conditions: MRI, mice; ref [19]; cited from earlier work
Description: Previously, cyclic cHAVc1 (cyclo(1,8)Ac-CSHAVASC-NH2) and cHAVc3 (cyclo(1,6)Ac-CSHAVC-NH2) were prepared and compared to a linear HAV4 (Ac-SHAVAS-NH2) in modulating the intercellular junctions in vitro and in vivo [19].

MDCK cell monolayers = conditions: ref [19], cited from earlier work
Description: Previously, cyclic cHAVc1 (cyclo(1,8)Ac-CSHAVASC-NH2) and cHAVc3 (cyclo(1,6)Ac-CSHAVC-NH2) were prepared and compared to a linear HAV4 (Ac-SHAVAS-NH2) in modulating the intercellular junctions in vitro and in vivo [19]. […] An alanine scanning study was carried out to evaluate the role of each amino acid in HAV6 peptide, and the biological activity of each alanine mutant peptide was evaluated in lowering the TEER values of MDCK cell monolayers. Mutation of the Ser1 to Ala1 residue reduced the junction modulatory activity of the HAV6 mutant; ...

BBB [10] = conditions: disulfide cyclic peptides vs parent linear peptides; ref [19],[20]; cited from earlier work
Source text: The goal of this study was to design and synthesize novel cyclic peptides derived from HAV6 and ADTC5 peptides to improve their BBB modulatory activity and selectivity by forming a peptide bond from the N- to C-termini (Table 1, Figure 1). The hypothesis is that the formation of N-to-C-termini cyclic peptides increases the backbone rigidity of the peptide to improve binding affinity and selectivity for the EC1 domain of cadherin as well as improving plasma stability of the cyclic peptide compared to its parent linear peptide. Previously, cHAVc3 and ADTC5 cyclic peptides were formed using a dis ...

Ac-ADTPPV-NH2 [ADT6, linear ADT peptide of Bocsik et al]
disruption of intercellular junctions (TEER), in words [1]: reversibly disrupts the intercellular junctions of primary brain endothelial cell monolayers

Ac-SHAVSS-NH2 [HAV6, parent linear cadherin peptide]
BBB penetration of galbumin with 10-min delay after peptide, in words (BBB [2]; 10-min delay between peptide and galbumin): does not allow the galbumin to cross the BBB
brain deposition of galbumin, in words (BBB [2]; galbumin 600 nmol/kg, living mice, MRI): significant brain deposition of galbumin
BBB penetration of 65 kDa galbumin, delivered together with peptide, in words (BBB [2]; high dose galbumin): can increase the BBB penetration of galbumin
brain delivery of 15 kDa lysozyme vs control, in words (brain (C57BL/6 mice) [3]): significantly enhanced the brain delivery of 15 kDa lysozyme compared to the control
binding site on EC1 domain, in words (EC1 domain of E-cadherin): bind to the EC1 domain of E-cadherin at the interface of cis-cadherin interactions
BBB window of opening for galbumin (BBB [4]; 65 kDa galbumin, ref [22] for HAV6 galbumin data, none printed for ADTC5): < 10 min
opening window of BBB for small molecule (IRdye-R800 and Gd-DTPA) (BBB [4]; IRdye-R800 and Gd-DTPA, ref [20],[21]): less than 1 h
brain delivery of albumin vs control, in words (brain (C57BL/6 mice) [5]): did not significantly enhance brain delivery of albumin; also recorded: no significant enhancement of albumin brain deposition
survival and tumor growth, in words ([6]; adenanthin + HAV6 vs adenanthin alone or placebo): increased survival and suppressed tumor growth
delivery of adenanthin into brain, in words ([6]; mice with medulloblastoma brain tumor): significantly improve the delivery of an anticancer drug, adenanthin, into the brains of mice
brain delivery of various molecules, in words (brain [7]; HAV6 and ADTC5 collectively, 14C-mannitol, PEG, daunomycin, R800, Gd-DTPA, cLABL, cIBR7, galbumin etc., ref [18],[19],[20],[21],[22],[23]): increase the brain delivery of various molecules
oral and brain deliveries of eflornithine, in words (brain [7]; rats, ref [25]): simultaneously increased
amount of IgG mAb in the brain (brain deposition) (brains of C57BL/6 mice; IgG mAb 21.6 nmol/kg with or without 13 µmol/kg peptide, i.v. tail vein, 15 min circulation, PBS/0.5% Tween-20 perfusion, NIRF (Odyssey CLx) of brain homogenate, mean ± SEM): 3.4 ± 0.4 pmol/g brain
brain delivery of IgG mAb compared to control (IgG mAb alone), in words (brains of C57BL/6 mice; IgG mAb 21.6 nmol/kg, peptide 13 µmol/kg i.v., 15 min, ANOVA Student–Newman–Keuls): did not enhance brain delivery of IgG mAb compared to the control

cyclo(1,6)Ac-CDTPPC-NH2 (disulfide) [ADTC6, earlier cyclic ADT peptide]
activity of ADT peptide, in words [8]: lowered the activity of ADTC6 compared to ADTC5

cyclo(1,6)Ac-CSHAVC-NH2 (disulfide) [cHAVc3, earlier disulfide cyclic HAV peptide]
binding site on EC1 domain, in words (EC1 domain of E-cadherin): bind to the EC1 domain of E-cadherin at the interface of cis-cadherin interactions
in vivo brain delivery of Gd-DTPA vs HAV4, in words (brain [9]): better than a linear HAV4
lowering of TEER values of MDCK cell monolayers vs HAV4, in words (MDCK cell monolayers; TEER): better than a linear HAV4
junction modulatory activity in MDCK cell monolayers, in words (MDCK cell monolayers; compared to HAV4 (and cHAVc1)): more active compared to HAV4 and cHAVc1
BBB modulatory activity and plasma stability vs parent linear peptides, in words (BBB [10]): enhanced BBB modulatory activity and plasma stability compared to their parent linear peptides
